Experiment in all cases: microbe, parasite or virus in culture
Assay type in all cases: cell-based

The test system of assay [1] is rifampin-resistant M. tuberculosis 10545 (rpoB-S′531′L). The following applies: Mycobacterium tuberculosis; read-out: antibacterial activity rifampin-resistant M. tuberculosis 10545 (rpoB-S′531′L) MIC.
Assay [2] concerns rifampin-resistant M. tuberculosis 4457 (rpoB-H′526′Y). The settings on record: Mycobacterium tuberculosis; read-out: antibacterial activity rifampin-resistant M. tuberculosis 4457 (rpoB-H′526′Y) MIC.
For assay [3], the system named is rifampin-resistant M. tuberculosis 20626 (rpoB-H′526′D). The settings on record: Mycobacterium tuberculosis; read-out: antibacterial activity rifampin-resistant M. tuberculosis 20626 (rpoB-H′526′D) MIC.

Structures are written as SMILES. Values after ≈ are worked out from the molar mass of the structure shown.

Turning to `[2H]C([2H])(c1ccccc1)C(NC(=O)c1ccccc1F)C(=O)Nc1cc(F)ccc1N1CCN(/N=C/C2=C3NC(=O)/C(C)=C\C=C\[C@H](C)[C@H](O)[C@@H](C)[C@@H](O)[C@@H](C)[C@H](OC(C)=O)[C@H](C)[C@@H](OC)/C=C/O[C@@]4(C)Oc5c(C)c(O)c(c(c5C4=O)C2=O)C3=O)CC1` (some centres unmarked) [IX-476a, Rifamycin S—(CHN)—IX-370a Conjugate], the MIC was found to be 6.25 µg/mL (≈ 5.26 µM) in assay [1] and 3.13 µg/mL (≈ 2.64 µM) in assay [2].

`CO[C@H]1/C=C/O[C@@]2(C)Oc3c(C)c(O)c4c(O)c(c(/C=N/N5CCN(CCN6CCN(c7ccc(F)cc7NC(=O)C(Cc7ccccc7)NC(=O)c7ccccc7F)CC6)CC5)c(O)c4c3C2=O)NC(=O)/C(C)=C\C=C\[C@H](C)[C@H](O)[C@@H](C)[C@@H](O)[C@@H](C)[C@H](OC(C)=O)[C@@H]1C` (some centres unmarked) [IX-403, Rifamycin SV—(CHN)—IX-402 Conjugate]: the MIC in assay [1] turned out to be 12.5 µg/mL (≈ 9.62 µM); in assay [2] it was 12.5 µg/mL (≈ 9.62 µM); in assay [3], 25 µg/mL (≈ 19.2 µM).

The values above are taken from patent publication US11447502B2, “Antibacterial agents: dual-targeted RNA polymerase inhibitors” (priority 2018, dated 2022).
